Assay results taken from patent US20230293630A1, “Coronavirus T Cell Epitopes and Uses Thereof” (priority 2020, published 2023).
Like-named read-outs stand apart in the source and are kept apart here.

Assays:
human T cells = test: T cell cytokine SFC response to cross-reactive CD4 epitopes (Tables 6-8); assay type: cell-based; conditions: for Total SFC: cross-reactive CD4 non-spike SARS-CoV-2 epitopes, all cytokines; for IFNg / IL5 / IL13: cross-reactive CD4 non-spike epitopes; for IFNg: IFNg spot forming cells; for IL5: IL5 spot forming cells; for IL13: IL13 spot forming cells
[1] = test system: SARS-CoV-2-specific CD8+ T cells (CD69+CD137+) in PBMC; assay type: cell-based, human
[2] = test system: SARS-CoV-2-specific CD4+ T cells (OX40+CD137+) in PBMC; assay type: cell-based, human
[3] = CD4+ T cell epitopes identified by AIM assay, share of donors responding
[4] = CD4+ T cell epitopes identified by AIM assay, sum of response per responding donor
[5] = CD4+ T cell epitopes identified by AIM assay, total response
[6] = CD4+ T cell epitopes identified by AIM assay, percent of tested donors responding
[7] = CD4+ T cell epitopes identified by AIM assay, total response summed over donors

Substance | Frequency of response (%) [2, 3] [%] | Magnitude by # of responding donors [2, 4] | Sum of response [2, 5] | other results
245 (DDQIGYYRRATRRIR) [compound 245] | – | – | – | Total SFC (human T cells): 787 SFC; IFNg (human T cells): 400; IL5 (human T cells): 0; IL13 (human T cells): 120
248 (PSGTWLTYTGAIKLD) [compound 248] | – | – | – | Total SFC (human T cells): 1227 SFC; IFNg (human T cells): 947; IL5 (human T cells): 0; IL13 (human T cells): 0
YKTFPPTEPK | – | – | – | Frequency of positive response [1]: 50; Magnitude of response [1]: 139; Sum of response [1]: 139
247 (LLLLDRLNQLESKMS) [compound 247] | – | – | – | Total SFC (human T cells): 1053 SFC; IFNg (human T cells): 1053; IL5 (human T cells): 0; IL13 (human T cells): 0
EPVLKGVKL | – | – | – | Frequency of positive response [1]: 20; Magnitude of response [1]: 313; Sum of response [1]: 313
807 (LAILTALRLCAYCCN) [compound 807] | – | – | – | Total SFC (human T cells): 1800 SFC; IFNg (human T cells): 1760; IL5 (human T cells): 0; IL13 (human T cells): 0
846 (YIINLIIKNLSKSLT) [compound 846] | – | – | – | Total SFC (human T cells): 1393 SFC; IFNg (human T cells): 1283; IL5 (human T cells): 0; IL13 (human T cells): 0
246 (DAALALLLLDRLNQL) [compound 246] | – | – | – | Total SFC (human T cells): 3813 SFC; IFNg (human T cells): 3520; IL5 (human T cells): 0; IL13 (human T cells): 0
806 (SEETGTLIVNSVLLF) [compound 806] | – | – | – | Total SFC (human T cells): 267 SFC; IFNg (human T cells): 267; IL5 (human T cells): 0; IL13 (human T cells): 0
847 (MKIILFLALITLATC) [compound 847] | – | – | – | Total SFC (human T cells): 373 SFC; IFNg (human T cells): 293; IL5 (human T cells): 0; IL13 (human T cells): 0
QYGDCLGDIAARDLI | 8 | 152 | 152 | –
HKNNKSWMESEFRVY | 9 | 572 | 572 | –
MAAYVDNSSLTIKKP | 7 | 185 | 185 | –
RENNRVVISSDVLVN | 33 | 170 | 170 | –
VWHVNNATNKATYKP | 8 | 158 | 158 | –
QELGKYEQYIKWPWY | 8 | 768 | 768 | –
PNFSKLINIIIWFLL | 8 | 3802 | 3802 | –
SDVLYQPPQTSITSA | 8 | 394 | 394 | –
RLFARTRSMWSFNPE | 8 | 141 | 141 | –
FNCYFPLQSYGFQPT | 8 | 130 | 130 | –
LIRQGTDYKHWPQIA | 15 | 216 | 431 | –
LLLLDRLNQLESKMS [SEQ ID NO 247] | 21 | 581 | 1742 | –
LPFFSNVTWFHAIHV | 9 | 156 | 156 | –
LTQHGKEDLKFPRGQ | 8 | 127 | 127 | –

Substance | Frequency of response (%) [2, 3] [%] | Magnitude by # of responding donors [2, 4] | Sum of response [2, 5] | other results
VVLSFELLHAPATVC | 7 | 317 | 317 | –
PRWYFYYLGTGPEAG | 7 | 750 | 750 | –
LGASQRVAGDSGFAA | 15 | 491 | 981 | –
FHQECSLQSCTQHQP | 18 | 413 | 826 | –
ELHLSWEVGKPRPPL | 8 | 103 | 103 | –
FGLVAEWFLAYILFT | 8 | 219 | 219 | –
KKPRQKRTATKAYNV | 31 | 227 | 907 | –
YFTSDYYQLYSTQLS | 8 | 198 | 198 | –
TPSFKKGAKLLHKPI | 8 | 103 | 103 | –
GSSGVVNPVMEPIYD | 7 | 186 | 186 | –
IGINITRFQTLLALH | – | 177 | – | Frequency of response (%) [2, 6]: 9%; Sum of response [2, 7]: 177
TRFQTLLALHRSYLT | – | 2172 | – | Frequency of response (%) [2, 6]: 18%; Sum of response [2, 7]: 4343
ARDLICAQKFNGLTV | 8 | 232 | 232 | –
RCSFYEDFLEYHDVR | – | – | – | Frequency of response (%) [2]: 36%; Magnitude by # of responding donors [2]: 174; Sum of response [2]: 696
GVPINTNSSPDDQIG | 8 | 108 | 108 | –
TRSMWSFNPETNILL | 17 | 205 | 410 | –
NLVRDLPQGFSALEP | 27 | 607 | 1822 | –
MKDLSPRWYFYYLGT | 14 | 2536 | 5072 | –
VTLADAGFIKQYGDC | 17 | 119 | 237 | –
VPGLPGTILRTTNGD | 9 | 439 | 439 | –
820 (EEIAIILASFSASTS) [compound 820] | – | – | – | Total SFC (human T cells): 13813 SFC; IFNg (human T cells): 7773; IL5 (human T cells): 1587; IL13 (human T cells): 1507
LLEQWNLVIGFLFLT | 13 | 122 | 243 | –
PVYSFLPGVYSVIYL | 8 | 650 | 650 | –
LPNDDTLRVEAFEYY | 9 | 162 | 162 | –

Substance | Frequency of response (%) [2, 3] [%] | Magnitude by # of responding donors [2, 4] | Sum of response [2, 5] | other results
KHFYWFFSNYLKRRV [SEQ ID NO 244] | 8 | 959 | 959 | –
QRNFYEPQIITTDNT | 7 | 302 | 302 | –
IVRFPNITNLCPFGE | – | 107 | – | Frequency of response (%) [2, 6]: 9%; Sum of response [2, 7]: 107
KIITLKKRWQLALSK | 9 | 120 | 120 | –
CVADYSVLYNSASFS | 8 | 210 | 210 | –
ALLAVFQSASKIITL [SEQ ID NO 249] | 9 | 178 | 178 | –
NTVKSVGKFCLEASF | 8 | 113 | 113 | –
KKRWQLALSKGVHFV [SEQ ID NO 250] | – | 144 | – | Frequency of response (%) [2, 6]: 18%; Sum of response [2, 7]: 287
IAGHHLGRCDIKDLP | 25 | 522 | 1565 | –
FTINCQEPKLGSLVV | – | – | – | Frequency of response (%) [2]: 27%; Magnitude by # of responding donors [2]: 167; Sum of response [2]: 502
849 (LYSPIFLIVAAIVFI) [compound 849] | – | – | – | Total SFC (human T cells): 520 SFC; IFNg (human T cells): 400; IL5 (human T cells): 0; IL13 (human T cells): 0
IQYIDIGNYTVSCLP | 9 | 1805 | 1805 | –
LMIERFVSLAIDAYP [SEQ ID NO 259] | – | 388 | – | Frequency of response (%) [2, 6]: 36%; Sum of response [2, 7]: 1941
QKKQQTVTLLPAADL | 7 | 712 | 712 | –
848 (VKHVYQLRARSVSPK) [compound 848] | – | – | – | Total SFC (human T cells): 3640 SFC; IFNg (human T cells): 2947; IL5 (human T cells): 227; IL13 (human T cells): 0
ADAVIKTLQPVSELL | 8 | 436 | 436 | –
YYRRATRRIRGGDGK | 23 | 197 | 592 | –
TDYKHWPQIAQFAPS | 8 | 180 | 180 | –
AIAMACLVGLMWLSY | 8 | 151 | 151 | –
LPPLLTDEMIAQYTS | 9 | 153 | 153 | –
KTDGTLMIERFVSLA | 7 | 150 | 150 | –
AVTANVNALLSTDGN | 7 | 201 | 201 | –
